Source: patent US20120122727A1, “IN VITRO METHOD FOR PREDICTING WHETHER A COMPOUND IS GENOTOXIC IN VIVO” (priority 2009, published 2012)

System: primary mouse hepatocytes
Assay: Gene expression (Affymetrix Mouse Genome 430 2.0) in primary mouse hepatocytes, true vs false GTX, 24 h and 48 h
Settings: log2, corrected for vehicle control

## CC(=O)Nc1ccc2c(c1)Cc1ccccc1-2 [2-AAF, 2-Acetylaminofluorene]
24 h average
  Gene expression data AF000969 (Cadps2): −0.5371
  Gene expression data AF022072 (Grb10): 0.5527
  Gene expression data AF065917 (Lif): −0.1242
  Gene expression data AF204959 (Cyp3a25 /// LOC622249): 0.2152
  Gene expression data AF297615 (Ggta1): 0.03187
  Gene expression data AI594683 (Dmn): −0.2452
  Gene expression data AI596632 (Ptprg /// LOC632664): −0.0981
  Gene expression data AI987929 (Ndrg1): 0.8432
  Gene expression data AK004419 (Fbxl17): −0.168
  Gene expression data AK005731 (1700007K13Rik): 0.08277
  Gene expression data AK007766 (1810044A24Rik): 0.01003
  Gene expression data AK007854 (1810053B23Rik): −0.9008
  Gene expression data AK009736 (Gpr137b /// LOC664862 /// LOC673335): −0.00723
  Gene expression data AK010447 (Smyd3): −0.1751
  Gene expression data AK014608 (4632434l11Rik): −0.09823
  Gene expression data AK019979 (2610528E23Rik): 0.3248
  Gene expression data AV095209 (Mthfd1l): 0.4403
  Gene expression data AV141095 (1110033M05Rik): −0.2881
  Gene expression data AV173571 (1700106N22Rik): −0.04133
  Gene expression data AV219418 (Ldhb): −0.3695
  Gene expression data AV223474 (Zdhhc14): −0.4459
  Gene expression data AV298304 (Homez): −0.1831
  Gene expression data AV327248 (Zfp365 /// LOC674611): 0.0668
  Gene expression data AV377066 (9130221J18Rik): −0.6586
  Gene expression data AW240761 (Tbc1d5): −0.0924
  Gene expression data AW543460 (Pard3): −0.3156
  Gene expression data AW543723: 0.1065
  Gene expression data AW986246 (Maoa): 0.01853
  Gene expression data BB027848 (4732466D17Rik): −0.252
  Gene expression data BB043558 (9230114K14Rik): −0.1205
  Gene expression data BB275142 (AW456874): −0.02303
  Gene expression data BB308836 (Ppm1l): −0.1499
  Gene expression data BB318221 (Zdhhc14): −0.411
  Gene expression data BB463610 (4632434l11Rik): −0.3778
  Gene expression data BB526605 (Mipol1): 0.3466
  Gene expression data BB770528 (Rai2): −0.5052
  Gene expression data BB821363 (Scfd2): −0.1216
  Gene expression data BC004827 (Psat1): 0.2797
  Gene expression data BC008626 (Icam1): −0.6353
  Gene expression data BC010462 (BC010462): −0.1475
  Gene expression data BC012247 (Dcxr): −0.08253
  Gene expression data BC012260 (Psmf1): −0.646
  Gene expression data BC015270 (Hist2h3c2): −0.1327
  Gene expression data BC016073 (Cdkal1): −0.1464
  Gene expression data BC016265 (Ube2e2): −0.3984
  Gene expression data BC019882 (Acaa1b): 1.3218
  Gene expression data BC025501 (Aaas): −0.1475
  Gene expression data BC025837 (Sbk1): −0.2976
  Gene expression data BC025915 (Cova1): −0.1568
  Gene expression data BC026422 (Tgm1): −0.1664
  Gene expression data BF719766 (Thyn1): −0.0442
  Gene expression data BG065754 (Ccng1): 0.0569
  Gene expression data BG066903 (Kif16b): −0.2125
  Gene expression data BG069873 (Gnb1l): −0.2747
  Gene expression data BG070887 (Gtdc1): −0.01607
  Gene expression data BG076151 (Ppm1d): −0.1219
  Gene expression data BG261907 (Large): −0.2502
  Gene expression data BI651416 (Cdc42bpg): 0.1552
  Gene expression data BI660702 (Ell3): 0.1219
  Gene expression data BM198879 (Ercc5): −0.2382
  Gene expression data BM230508 (A030007D23Rik): 0.282
  Gene expression data NM_007987 (Fas): 0.06923
  Gene expression data NM_008522 (Ltf): 0.1277
  Gene expression data NM_008576 (Abcc1): 0.3321
  Gene expression data NM_011176 (St14): −0.03387
  Gene expression data NM_011316 (Saa4): −0.3157
  Gene expression data NM_012006 (Acot1): 1.9403
  Gene expression data NM_013866 (Zfp385): −0.136
  Gene expression data NM_018770 (Igsf4a): −0.2065
  Gene expression data NM_021451 (Pmaip1): −0.7054
  Gene expression data NM_025770 (Atg10): 0.01663
  Gene expression data NM_028803 (Gbe1): −0.2716
  Gene expression data NM_030697 (Ankrd47): −0.252
  Gene expression data NM_053168 (Trim11): −0.2676
  Gene expression data NM_134188 (Acot2): 0.597
  Gene expression data Y15910 (Diap2): −0.366
48 h
  Gene expression AA561726 average: −0.7419
  Gene expression AF000969 average: −0.8319
  Gene expression AF022072 average: 0.0482
  Gene expression AF033112 average: −0.03947
  Gene expression AF055573 average: −0.2895
  Gene expression AF069954 average: 0.3518
  Gene expression AF297615 average: −0.6791
  Gene expression AF335325 average: −0.3088
  Gene expression AI594683 average: −0.05213
  Gene expression AI747296 average: −0.5003
  Gene expression AK005731 average: 0.01113
  Gene expression AK007854 average: 1.4303
  Gene expression AK010447 average: −0.3256
  Gene expression AK010738 average: 0.1851
  Gene expression AK014608 average: −0.01987
  Gene expression AK017734 average: 0.0451
  Gene expression AK018383 average: 0.2303
  Gene expression AK019979 average: −0.5099
  Gene expression AV095209 average: −0.3718
  Gene expression AV141095 average: −0.5829
  Gene expression AV173869 average: −0.3782
  Gene expression AV216768 average: −0.6814
  Gene expression AV219418 average: 0.7839
  Gene expression AV221299 average: 0.6759
  Gene expression AV246296 average: −0.54
  Gene expression AV251625 average: 0.07103
  Gene expression AV254764 average: −0.006467
  Gene expression AV327248 average: −0.09177
  Gene expression BB009155 average: −0.5851
  Gene expression BB027848 average: 0.5378
  Gene expression BB043558 average: 0.196
  Gene expression BB046347 average: 0.2178
  Gene expression BB140436 average: 0.4693
  Gene expression BB204486 average: −0.6445
  Gene expression BB223872 average: 0.3216
  Gene expression BB246912 average: −0.2264
  Gene expression BB275142 average: 0.1102
  Gene expression BB458460 average: −0.3368
  Gene expression BB463610 average: 0.0872
  Gene expression BB730977 average: −0.9937
  Gene expression BB743970 average: 0.7664
  Gene expression BB770528 average: −0.5594
  Gene expression BB781615 average: −0.1164
  Gene expression BC003284 average: 0.02563
  Gene expression BC004827 average: −0.2015
  Gene expression BC005552 average: −0.126
  Gene expression BC006713 average: 0.4411
  Gene expression BC010318 average: −0.02213
  Gene expression BC012247 average: 0.6286
  Gene expression BC012955 average: 0.05073
  Gene expression BC013893 average: 0.4936
  Gene expression BC017615 average: −0.5229
  Gene expression BC019379 average: −1.215
  Gene expression BC019882 average: 1.577
  Gene expression BC021352 average: −1.127
  Gene expression BC022148 average: 0.456
  Gene expression BC025169 average: −0.2222
  Gene expression BC026131 average: −0.3489
  Gene expression BC027026 average: 0.8063
  Gene expression BC027121 average: −0.1341
  Gene expression BC027185 average: 0.4588
  Gene expression BE956581 average: 0.1808
  Gene expression BF719766 average: 0.2652
  Gene expression BG065754 average: 0.3738
  Gene expression BG066491 average: −1.541
  Gene expression BG076151 average: −0.3358
  Gene expression BG076333 average: −0.1306
  Gene expression BG797099 average: −0.06173
  Gene expression BG967046 average: 0.0391
  Gene expression BI651416 average: 0.3502
  Gene expression BI966443 average: 0.1201
  Gene expression BM198879 average: −0.2887
  Gene expression BM200015 average: 0.5127
  Gene expression BM230508 average: 0.0745
  Gene expression BM936480 average: 0.9169
  Gene expression BQ174991 average: −0.3426
  Gene expression L21027 average: −0.729
  Gene expression NM_007556 average: 0.02703
  Gene expression NM_007980 average: 1.503
  Gene expression NM_007987 average: 0.516
  Gene expression NM_008522 average: 0.1967
  Gene expression NM_008935 average: 0.02783
  Gene expression NM_009897 average: −0.003733
  Gene expression NM_011075 average: −0.5522
  Gene expression NM_011176 average: −0.2632
  Gene expression NM_011316 average: 0.4369
  Gene expression NM_012006 average: 2.771
  Gene expression NM_013642 average: −0.6535
  Gene expression NM_013738 average: −0.2396
  Gene expression NM_013929 average: −0.04163
  Gene expression NM_018881 average: 0.9061
  Gene expression NM_019738 average: −0.193
  Gene expression NM_030697 average: −0.4783
  Gene expression NM_053122 average: −0.106
  Gene expression NM_134147 average: 0.04213
  Gene expression NM_134188 average: 0.9088
  Gene expression X62701 average: −0.356
